Laboratory results taken from patent publication US5308840A, “Substituted or unsubstituted benzhydryl heteroalkyl-substituted aminophenol compounds and pharmaceutical compositions thereof” (Green Cross Corporation, priority 1991, dated 1994).
Values after ≈ are worked out from the molar mass of the structure shown.

Columns and labels:
[1] = tested on: lipoperoxide production in rat cerebral tissues; assay: Inhibition of lipoperoxide production in rat cerebral tissues (TBA reaction in cerebral tissue homogenate); format: biochemical; conditions: 37° C., 120 minutes, test concentrations 10, 1, 0.1, 0.01, 0.001 μg/ml, absorbance 535 nm, least square method
Method: Inhibition of lipoperoxide production in rat cerebral tissues
(1) Preparation of cerebral tissue homogenate
A rat was slaughtered with carbon dioxide, and immediately after blood sampling from the heart, brain was removed and weighed. A 5% (w/v) tissue homogenate was prepared by a homogenizer with PBS (pH 7.3). Homogenation was conducted two times for 15 seconds (scale 10) while cooling.
(2) Inhibition of lipoperoxide production in rat cerebral 4issues.
Each of the test drugs (50 μl, concentration 10, 1, 0.1, 0.01, 0.001 μg/ml) was placed in a polypropylene tube, to which was added cerebral tissue homogenate (1 ml), followed by incubation at 37° C. in a thermobath for 120 minutes. Thereafter, 1% phosphoric acid (0.3 ml), 10% phosphotungstic acid (0.2 ml) and 0.67% TBA (tiobarbituric acid) agent (1 ml) were added thereto while stirring as necessary, and immediately thereafter, TBA reaction was conducted in a boiling water bath for 20 minutes. The mixture was cooled in ice water for 5 minutes, and added with n-butanol (4 ml). After 10 minutes' shaking extraction, it was centrifuged at 3000 rpm and at room temperature (low temperature causes change of absorbance) for 10 minutes. The absorbance of the butanol layer (upper layer) was measured at a wavelength of 535 nm. The difference between the absorbance of the control incubated at 37° C. (added with dimethylsulfoxide only) and that of the control cooled at 2° C. (added with dimethylsulfoxide only) was taken as the amount of 100% lipoperoxide production, and the percent suppression of the drug was calculated from the following formula. [formula] wherein A is the difference of absorbance of 37° C. control and 2° C. control, and B is the difference of absorbance of a drug sample and 2° C. control. The IC50 (μg/ml) was calculated by least square method using the percent inhibition at each concentration.

[2] = tested on: TPA-induced mouse ear edema; assay: Effect on TPA-induced mouse ear edema test; format: in vivo, male ICR mice; conditions: inhibition of ear edema (ear weight difference) vs control; TPA 1 μg/20 μl, topical; drug dissolved in TPA solution (100 μg/20 ml); 5 hours
Method: Effect on TPA-induced mouse ear edema test
Male ICR mice weighing about 20 g were etherized, and fixed at the dorsal position. TPA (12-O-tetradecanoylphorbol-13-acetate: phorbol 12-myristate-13-acetate, 1 μg/20 μl) dissolved in a mixed solution of acetone: pyridine: water (97:2:1) was coated on the left year while drying with a dryer. Five hours later, the mice were slaughtered by vertebral dislocation. The both ears were stamped out with a circle chisel (punch), and weighed. The weight difference between the both ears was taken as an index of the degree of edema, and the percent inhibition was calculated from the comparison with the control. Each drug was dissolved in TPA solution (100 μg/20 ml).

Row | SMILES | IC50 [1] [µg/mL] | Inhibition (%) [2] [%]
1 | CN(C)CCOC(c1ccc(Cl)cc1)c1ccc(O)c(N(C)C)c1 (stereo not drawn) [Compound 1, 2-[1-(4-chlorophenyl)-1-(3-dimethylamino-4-hydroxyphenyl)methoxy]-N,N-dimethylethanamine] | 0.39 (≈ 1.12 µM) | –
2 | CN1CCN(C(c2ccc(Cl)cc2)c2ccc(O)c(N(C)C)c2)CC1 (stereo not drawn) [Compound 3, 4-[1-(4-chlorophenyl)-1-(4-methylpiperazino)]methyl-2-dimethylaminophenol] | – | 71.1
3 | CN(C)CCN(Cc1ccc(O)c(N(C)C)c1)c1ccccc1 [Compound 4, 2-dimethylamino-4-[N-(2-dimethylaminoethyl)-N-phenyl]aminomethylphenol] | – | 75.0
4 | CN(C)CC=C(c1ccc(Cl)cc1)c1ccc(O)c(N(C)C)c1 [Compound 5, 1-(4-chlorophenyl)-3-dimethylamino-1-(3-dimethylamine-4-hydroxyphenyl)-1-propene] | 0.20 (≈ 0.604 µM) | 75.0
5 | CN(C)CCC(c1ccc(Cl)cc1)c1ccc(O)c(N(C)C)c1 (stereo not drawn) [Compound 6, 4-[1-(4-chlorophenyl)-3-dimethylaminopropyl]-2-dimethylaminophenol] | 0.31 (≈ 0.931 µM) | 62.7
6 | CN(C)c1cc(CN2CCN(C(c3ccccc3)c3ccc(Cl)cc3)CC2)ccc1O (stereo not drawn) [Compound 7, 4-[4-(4-chlorobenzhydryl)piperazino]methyl-2-dimethylaminophenol] | 0.16 (≈ 0.367 µM) | 54.6
7 | Cc1ccc(O)c(N(C)CCOC(c2ccccc2)c2ccccc2)c1 [Compound 10] | 0.23 (≈ 0.662 µM) | –
8 | Cc1ccc(O)c(NC(C)CN2c3ccccc3Sc3ccccc32)c1 (stereo not drawn) [Compound 12, 2-[1-methyl-2-(phenothiazine-10-yl)ethyl]amino-4-methylphenol] | 0.086 (≈ 0.237 µM) | 74.7
9 | Cc1ccc(O)c(NCCCN2CCN(C(c3ccccc3)c3ccccc3)CC2)c1 [Compound 14, 2-[3-(4-benzhydrylpiperazino)propyl]amino-4-methylphenol] | 0.038 (≈ 0.0914 µM) | 77.8
10 | Cc1ccc(O)c(NCCCN2CCN(C(c3ccccc3)c3ccc(Cl)cc3)CC2)c1 (stereo not drawn) [Compound 15, 2-[3-[4-(4-chlorobenzhydryl)piperazino]propyl]amino-4-methylphenol] | 0.12 (≈ 0.267 µM) | 86.7
11 | Cc1ccc(O)c(N(C)CCCN2CCN(C(c3ccccc3)c3ccccc3)CC2)c1 [Compound 16, 2-[N-[3-(4-benzhydrylpiperazino)propyl]-N-methyl]amino-4-methylphenol] | 0.30 (≈ 0.698 µM) | 50.9
12 | Cc1ccc(O)c(NCCCN2CCCN(C(c3ccccc3)c3ccc(Cl)cc3)CC2)c1 (stereo not drawn) [Compound 17, 2-[3-[4-(4-chlorobenzhydryl)homopiperazino)propyl]amino-4-methylphenol] | 0.013 (≈ 0.028 µM) | 87.0
13 | Cc1ccc(O)c(NCCCN2CCC(C(O)(c3ccccc3)c3ccccc3)CC2)c1 [Compound 18, 2-[3-(4-hydroxydiphenylmethyl-1-piperidinyl)propyl]amino-4methylphenol] | 0.029 (≈ 0.0673 µM) | 89.0
14 | Cc1ccc(O)c(NCCCN2CCC(OC(c3ccccc3)c3ccccc3)CC2)c1 [Compound 19, 2-[3-(4-benzhydryloxy-1-piperidinyl)propyl]amino-4-methylphenol] | 0.036 (≈ 0.0836 µM) | 85.5
15 | Cc1cc(NCCCN2CCN(C(c3ccccc3)c3ccc(Cl)cc3)CC2)c(O)c(C(C)(C)C)c1 (stereo not drawn) [Compound 20, 6-tert-butyl-2-[3-[4-(4-chlorobenzhydryl)piperazino]propyl]amino-4-methylphenol] | 0.066 (≈ 0.13 µM) | 63.8
16 | Cc1ccc(O)c(N(CCCN2CCN(C(c3ccccc3)c3ccc(Cl)cc3)CC2)C(C)C)c1 (stereo not drawn) [Compound 21, 2-[N-[3-[4-(4-chlorobenzhydryl)piperazino]propyl]-N-isopropyl]amino-4-methylphenol] | 0.44 (≈ 0.894 µM) | 44.4
17 | Cc1ccc(O)c(N(CCCN2CCC(C(O)(c3ccccc3)c3ccccc3)CC2)C(C)C)c1 [Compound 23, 2-[N-[3-(4-hydroxydiphenylmethyl-1-piperidinyl)propyl]-N-isopropyl]amino-4-methylphenol] | 0.79 (≈ 1.67 µM) | 39.2
18 | Cc1ccc(O)c(NCCCN2CCC(C(O)(c3ccccc3)c3ccc(Cl)cc3)CC2)c1 (stereo not drawn) [Compound 26, 2-[3-[4-(4-chlorophenyl)hydroxyphenylmethyl-1-piperidinyl]propyl]amino-4-methylphenol] | – | 97.5
19 | Cc1ccc(O)c(NCCCN2CCN(C(c3ccc(F)cc3)c3ccc(F)cc3)CC2)c1 [Compound 32, 2-[3-[4-(4,4'-difluorobenzhydryl)piperazino]propyl]amino-4-methylphenol] | 0.10 (≈ 0.221 µM) | 64.1
